Laboratory results published in patent US20130267494A1, “1,4-OXAZEPANE DERIVATIVES” (priority 2010, published 2013).
Counter-ions that a name gives are not always drawn. Like-named read-outs stand apart in the source and are kept apart here.

Tests used:
Type in all cases: cell-based
[1] = biological target: T1, human dopamine transporter (Homo sapiens, UniProt Q01959); experiment: Inhibitory action on human dopamine transporter ([3H]-dopamine uptake in CHO cells); details: CHO, compound 1 μM; relative to inhibitory activity of 100 μM Nomifensine as 100%; read-out: inhibitory rate (%)
T1 construct: expressed in transfected cells
Description: SRα promoter contained in pTB1411 described in JP-A-H5-076385 was cleaved with restriction enzyme […](manufactured by TAKARA BIO INC.), blunt-ended, further cleaved with restriction enzyme EcoRI (manufactured by TAKARA BIO INC.), and fragmented. On the other hand, pCI vector was cleaved with restriction enzyme BglII (manufactured by TAKARA BIO INC.), blunt-ended with T4 DNA polymerase, and further cleaved with restriction enzyme EcoRI (manufactured by TAKARA BIO INC.). Into this site was inserted an SRa promoter fragment to give pCI-SRa. Then, pCI-SRa was cleaved with restriction enzyme ClaI (manufactured by TAKARA BIO INC.) and blunt-ended. Into this site was inserted a 1.63 Kb fragment obtained by cleaving pGFP-C1 (manufactured by TOYOBO) with restriction enzyme Bsu36I (manufactured by Daiichi Pure Chemicals Co., Ltd.) followed by blunt-ending, whereby pMSRα neo was prepared. Human dopamine transporter cDNA was amplified from human substantia nigra cDNA library by PCR, and inserted into the pCRII vector (manufactured by Invitrogen). The base sequence was confirmed, modified and subcloned to pMSRα neo, whereby a human dopamine transporter expression plasmid was constructed.
(§1) The monoamine transporter expression plasmids thus prepared were introduced into CHO-K1 cells using FuGENE6 (manufactured by Roche Diagnostics) and according to the attached protocol, whereby each expressing cell was established.
CHO cells stably expressing human dopamine transporter were used for the measurement of human dopamine transporter inhibitory activity. Unless otherwise indicated, these CHO cells were cultured in Ham/F12 medium (Invitrogen) containing 10% fetal bovine serum (MOREGATE).
(§2) One day before the assay, the cultured cells that reached almost confluent were rinsed with PBS (Invitrogen), detached with Trypsin/EDTA (Invitrogen), and collected by a centrifugal operation. The obtained cells were counted, and diluted to 3×10^5 cells per 1 mL medium, and the mixture was dispensed to a 96 well white plate (Corning) at 100 μL per well, and cultured overnight in a CO2 incubator.
(§3) On the day of the test, an assay buffer (126 mM NaCl, 4.95 mM KCl, 1.26 mM KH2PO4, 1.26 mM MgSO4, 10 mM HEPES, 2.32 mM CaCl2, 5.52 mM Glucose, 0.5% BSA) was prepared, the medium in the cell plate was removed and the assay buffer was added by 80 μL. A test compound was diluted with the assay buffer to a 10-fold concentration of the final concentration, and the mixture was dispensed to a 96 well polypropylene plate. The diluted test compound was dispensed to the cell plate by 10 μL. [3H]-Dopamine (GE Healthcare) was diluted with the assay buffer to 200 nM, cold dopamine was diluted to 10 μM, and the mixture was dispensed to the cell plate by 10 μL. At 60 min from [3H]-dopamine addition, the assay buffer was removed by suction, and the plate was washed twice with 150 μL of PBS (Invitrogen) per well. Microscinti20 (PerkinElmer) was dispensed to each well by 100 μL, and the mixture was stirred for about 30 min. The radioactivity was measured by TopCount (PerkinElmer).
The inhibitory activity of each compound (10 μM) was calculated as a relative activity value based on the inhibitory activity of 100 μM Nomifensine (dopamine transporter inhibitor) as 100%.
The inhibitory activity of each compound (1 μM) was m calculated as a relative activity value based on the inhibitory activity of 100 μM Nomifensine (dopamine transporter inhibitor) as 100%.

[2] = biological target: T2, human serotonin transporter (Homo sapiens, UniProt P31645); experiment: Inhibitory action on human serotonin transporter ([3H]-5-hydroxytryptamine uptake in CHO cells); details: CHO, compound 1 μM; relative to inhibitory activity of 10 μM Paroxetine as 100%; read-out: inhibitory rate (%)
T2 construct: expressed in transfected cells
Description: (§4) Human serotonin transporter cDNA was amplified from human brain cDNA library by PCR, and inserted into pCRII-TOPO vector (manufactured by Invitrogen). The base sequence was confirmed and modified, and subcloned to pcDNA3.1 vector (manufactured by Invitrogen), whereby a human serotonin transporter expression plasmid was constructed. Human norepinephrine transporter cDNA was purchased from Invitrogen, and the base sequence was confirm and modified, and subcloned to pcDNA3.1 vector, whereby a human norepinephrine transporter expression plasmid was constructed.
as §1
CHO cells stably expressing a human serotonin transporter were used for the measurement of human serotonin transporter inhibitory activity. Unless particularly indicated, these CHO cells were cultured in a Ham/F12 medium (Invitrogen) containing 10% fetal bovine serum (MOREGATE).
as §2, with “The” for “One day before the assay, the”, “medium,” for “medium, and”
as §3, with “Then,” for “On the day of the test,”, “[3H]-5-Hydroxytryptamine” for “[3H]-Dopamine”, “nM,” for “nM, cold dopamine was diluted to 10 μM,”, “20” for “60”, “[3H]-5-hydroxytryptamine” for “[3H]-dopamine”
The inhibitory activity of each compound (10 μM) was calculated as a relative activity value based on the inhibitory activity of 10 μM Paroxetine (serotonin transporter inhibitor) as 100%.
In addition, the inhibitory activity of each compound (1 μM) was calculated as a relative activity value based on the inhibitory activity of 10 μM Paroxetine (serotonin transporter inhibitor) as 100%.

[3] = biological target: T3, human norepinephrine transporter (Homo sapiens, UniProt P23975); experiment: Inhibitory action on human norepinephrine transporter ([3H]-norepinephrine uptake in CHO cells); details: CHO, relative to inhibitory activity of 10 μM DMI as 100%
T3 construct: expressed in transfected cells
Description: as §4, §1
CHO cells stably expressing human norepinephrine transporter were used for the measurement of human norepinephrine transporter inhibitory activity. Unless otherwise indicated, these CHO cells were cultured in Ham/F12 medium (Invitrogen) containing 10% fetal bovine serum (MOREGATE).
as §2, with “The” for “One day before the assay, the”
as §3, with “Then,” for “On the day of the test,”, “[3H]-Norepinephrine” for “[3H]-Dopamine”, “nM,” for “nM, cold dopamine was diluted to 10 μM,”, “45” for “60”, “[3H]-norepinephrine” for “[3H]-dopamine”
The inhibitory activity of each compound (10 μM) was calculated as a relative activity value based on the inhibitory activity of 10 μM DMI (norepinephrine transporter inhibitor) as 100%.
The inhibitory activity of each compound (1 μM) was calculated as a relative activity value based on the inhibitory activity of 10 μM DMI (norepinephrine transporter inhibitor) as 100%.

[4] = compound 1 μM, read-out: inhibitory rate (%)

T3 sequence (P23975 whole entry): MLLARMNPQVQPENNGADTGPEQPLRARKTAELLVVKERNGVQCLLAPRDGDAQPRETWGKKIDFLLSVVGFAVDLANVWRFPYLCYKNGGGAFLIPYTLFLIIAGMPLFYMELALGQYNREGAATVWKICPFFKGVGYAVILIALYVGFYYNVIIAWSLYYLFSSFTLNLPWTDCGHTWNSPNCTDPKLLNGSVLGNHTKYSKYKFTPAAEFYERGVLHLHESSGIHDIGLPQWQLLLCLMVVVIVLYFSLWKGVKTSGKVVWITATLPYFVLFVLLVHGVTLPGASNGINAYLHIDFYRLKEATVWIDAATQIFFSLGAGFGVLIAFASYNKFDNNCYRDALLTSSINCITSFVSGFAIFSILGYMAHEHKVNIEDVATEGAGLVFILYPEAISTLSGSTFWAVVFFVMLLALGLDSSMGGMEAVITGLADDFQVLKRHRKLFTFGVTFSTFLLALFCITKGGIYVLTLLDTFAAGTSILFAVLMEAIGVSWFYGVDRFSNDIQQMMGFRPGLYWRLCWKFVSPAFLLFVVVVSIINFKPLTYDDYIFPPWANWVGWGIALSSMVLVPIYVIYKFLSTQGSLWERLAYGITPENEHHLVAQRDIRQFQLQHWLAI
T2 sequence (P31645 whole entry): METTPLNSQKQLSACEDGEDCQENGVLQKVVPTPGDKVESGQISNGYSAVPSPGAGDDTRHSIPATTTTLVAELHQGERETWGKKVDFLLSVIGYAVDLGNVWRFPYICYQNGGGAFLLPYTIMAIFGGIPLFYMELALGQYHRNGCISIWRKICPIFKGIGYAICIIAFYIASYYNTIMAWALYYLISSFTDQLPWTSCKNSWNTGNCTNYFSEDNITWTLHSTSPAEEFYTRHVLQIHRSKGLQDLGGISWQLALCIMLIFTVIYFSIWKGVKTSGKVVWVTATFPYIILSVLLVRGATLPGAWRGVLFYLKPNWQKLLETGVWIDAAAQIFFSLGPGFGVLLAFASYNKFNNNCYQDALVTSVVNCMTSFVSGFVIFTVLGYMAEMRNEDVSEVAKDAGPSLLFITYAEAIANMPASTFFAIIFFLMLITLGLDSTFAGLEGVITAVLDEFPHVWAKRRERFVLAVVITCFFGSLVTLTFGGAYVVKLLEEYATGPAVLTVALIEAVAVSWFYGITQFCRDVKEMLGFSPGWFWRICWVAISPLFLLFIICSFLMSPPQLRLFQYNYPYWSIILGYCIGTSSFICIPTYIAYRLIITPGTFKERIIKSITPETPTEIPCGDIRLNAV
T1 sequence (Q01959 whole entry): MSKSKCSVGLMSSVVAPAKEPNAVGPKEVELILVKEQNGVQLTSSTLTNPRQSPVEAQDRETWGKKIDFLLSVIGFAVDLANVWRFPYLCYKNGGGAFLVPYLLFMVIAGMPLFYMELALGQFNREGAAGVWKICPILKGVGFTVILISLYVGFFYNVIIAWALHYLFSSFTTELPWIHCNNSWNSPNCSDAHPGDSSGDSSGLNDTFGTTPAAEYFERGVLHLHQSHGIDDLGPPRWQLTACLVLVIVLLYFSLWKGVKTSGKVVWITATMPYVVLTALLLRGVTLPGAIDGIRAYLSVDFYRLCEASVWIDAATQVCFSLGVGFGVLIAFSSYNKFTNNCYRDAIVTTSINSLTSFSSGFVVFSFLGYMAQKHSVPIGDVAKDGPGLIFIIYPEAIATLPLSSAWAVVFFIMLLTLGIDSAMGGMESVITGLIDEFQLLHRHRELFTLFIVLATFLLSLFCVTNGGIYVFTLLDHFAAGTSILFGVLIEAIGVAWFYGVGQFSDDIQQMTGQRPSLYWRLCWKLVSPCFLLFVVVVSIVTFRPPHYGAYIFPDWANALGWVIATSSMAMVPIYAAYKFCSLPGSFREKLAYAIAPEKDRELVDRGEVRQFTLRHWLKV

inhibition at 1 µM [1] [%]	inhibition at 1 µM [2] [%]	inhibition at 1 µM [3, 4] [%]	SMILES	inhibition at 1 µM ([3]; read-out: inhibitory rate (%), compound 1 μM) [%]
91	66	103	O=S(=O)(NC[C@H]1OCCNC[C@H]1c1ccc(Cl)c(Cl)c1)C(F)F [Example 470, N-{[(6R,7S)-6-(3,4-dichloropheny))-1,4-oxazepan-7-yl]methyl}-1,1-difluoromethanesulfonamide monohydrochloride]	
12	73	98	OC[C@H]1CNCCO[C@@H]1c1ccc(Cl)c(F)c1 [Example 302, [(6R,7S)-7-(4-chloro-3-fluorophenyl)-1,4-oxazepan-6-yl]methanol monohydrochloride]	
24	56	105	Cc1ccc([C@H]2OCCNC[C@@H]2CNS(C)(=O)=O)cc1Cl (relative stereo) [Example 409, N-{[(6R,7S)-7-(3-chloro-4-methylphenyl)-1,4-oxazepan-6-yl]methyl}methanesulfonamide monohydrochloride]	
1	14	107	O[C@@H]1CNCCO[C@H]1c1ccc(Cl)c(F)c1 [Example 552, (6R,7S)-7-(4-chloro-3-fluorophenyl)-1,4-oxazepan-6-ol monohydrochloride]	
39	87	100	O=C(O)c1ccnn1C[C@@H]1CNCCO[C@H]1c1ccc(Cl)c(Cl)c1 [Example 181, 1-{[(6S,7R)-7-(3,4-dichlorophenyl)-1,4-oxazepan-6-yl]methyl}-1H-pyraole-5-carboxylic acid monohydrochloride]	
10	84	97	CS(=O)(=O)NC[C@@]1(c2ccc(Cl)c(Cl)c2)CCNCCO1 [Example 432, N-{[(7S)-7-(3,4-dichlorophenyl)-1,4-oxazepan-7-yl]methyl}methanesulfonamide monohydrochloride]	

Further lines, the compound ahead of its results:

SMILES	inhibition at 1 µM [1] [%]	inhibition at 1 µM [2] [%]	inhibition at 1 µM [3, 4] [%]	inhibition at 1 µM ([3]; read-out: inhibitory rate (%), compound 1 μM) [%]
O=c1[nH]nc(-c2cccn(C[C@@H]3CNCCO[C@H]3c3ccc(Cl)c(F)c3)c2=O)o1 [Example 550, 1-{[(6S,7R)-7-(4-chloro-3-fluorophenyl)-1,4-oxazepan-6-yl]methyl}-3-(5-oxo-4,5-dihydro-1,3,4-oxadiazol-2-yl)pyridin-2(1H)-one monohydrochloride]	46	97	109	
CS(=O)(=O)CC(=O)NC[C@@H]1CNCCO[C@H]1c1ccc(Cl)c(Cl)c1 [Example 114, N-{[(6S,7R)-7-(3,4-dichlorophenyl)-1,4-oxazepan-6-yl]methyl}-2-(methylsulfonyl)acetamide monohydrochloride]	59	94	99	
NS(=O)(=O)NC[C@@H]1CNCCO[C@H]1c1ccc(Cl)c(Cl)c1 [Example 35, N-{[(6S,7R)-7-(3,4-dichlorophenyl)-1,4-oxazepan-6-yl]methyl}sulfamide monohydrochloride]	63	86	99	
O=c1[nH]c(-c2ccnn(C[C@@H]3CNCCO[C@H]3c3ccc(Cl)c(Cl)c3)c2=O)no1 [Example 209, 2-{[(6S,7R)-7-(3,4-dichlorophenyl)-1,4-oxazepan-6-yl]methyl}-4-(5-oxo-4,5-dihydro-1,2,4-oxadiazol-3-yl)pyridazin-3(2H)-one monohydrochloride]	71	97		101
O=c1[nH]nc(-c2cccn(C[C@@H]3CNCCO[C@H]3c3ccc(Cl)c(F)c3)c2=O)[nH]1 [Example 379, 1-{[(6S,7R)-7-(4-chloro-3-fluorophenyl)-1,4-oxazepan-6-yl]methyl}-3-(5-oxo-4,5-dihydro-1H-1,2,4-triazol-3-yl)pyridin-2(1H)-one monohydrochloride]	64	95	102	
